Results from patent US12083134B2, “Anacardic acid for neural repair” (Vanderbilt University, priority 2018, dated 2024).

Legend:
MBP in OPCs = test: Western blot of MBP in OPCs cultured with AA for 10 days; assay type: cell-based, rat
Protocol: To further verify the ability of AA to induce MBP protein synthesis, 4×10^6 OPCs were cultured in poly-D lysine coated culture dishes with and without AA for 10 days. The AA concentrations that were studied were as follows: 1, 2.5, 5, 7.5, and 10 μM. The growth medium was changed every three days. […] Upon culture in vitro, OPCs differentiated and became myelin expressing cells, a process which took about 7-14 days.

[1] = tested on: cuprizone induced demyelination; test: Cuprizone induced model of demyelination, myelin staining of corpus callosum; assay type: in vivo, mice
Protocol: Mice were administered cuprizone for nine weeks, and starting at week 7, mice were treated with 12.5 mg/kg AA daily for three additional weeks. Mice were sacrificed at the end of week 9. […] The data are expressed as the mean pixel intensity of LFB staining normalized to controls measured at two non-overlapping regions of the corpus callosum.
FIG. 11 provides images showing the staining of myelin using LFB stain (top panel) and immunostaining with anti MBP antibodies (bottom panel) in coronal sections of the brain in a 9-week study of naïve (left), cuprizone treated (middle), and cuprizone+AA treated (12.5 mg/kg/day) mice where the cuprizone+AA treated mice were treated with AA in weeks 7-9 of the study. The Y axis represents the mean pixel intensity of staining normalized to controls for LFB and immunostaining for MBP.
The cuprizone induced model of demyelination is a model for toxic demyelination. Torkildsen et al., Acta Neurol Scand Suppl. 188:72-6 (2008); Bai et al., Exp Neurol, 283(Pt A): 330-40 (2016). Cuprizone induces extensive demyelination in large white matter tracts of the CNS. Because the corpus callosum is the largest white matter tract in the brain, it is often used to study demyelination/remyelination in the cuprizone model. In the cuprizone model, animals are fed with cuprizone that causes cell death of oligodendrocytes. […] Deshmukh et al., Nature, 502(7471):327-32 (2014); Magalon et al., Ann Neurol, 71(2):213-26 (2012). Since the model is non-immune mediated, neuro-reparative therapies which promote remyelination can be tested without the interference of markers of inflammation. Lassmann and Bradl, Acta Neuropathol, 133(2):223-44 (2017).
The efficacy of any potential drug is only apparent for a short period of time after cuprizone withdrawal and before the natural process of remyelination catches up. Following cuprizone withdrawal, there is complete remyelination after 6 weeks. Thus, a study was conducted where mice were administered cuprizone in their chow for nine weeks and either AA or a vehicle were administered with the cuprizone starting at 7 weeks. Previous studies have shown that chow mixed with 0.2% cuprizone causes wide spread demyelination and demyelination is seen in the corpus callosum after 6 to 8 weeks on cuprizone. At the beginning of week 7, mice received 12.5 mg/kg of AA dissolved in DMSO sc daily for an additional three weeks. Control mice received an equal volume of DMSO (vehicle). Equal numbers of mice (5/group) were sacrificed and the amount of myelin was determined by staining with luxol fast blue (“LFB”) (chemical stain for myelin) or by staining with anti MBP antibodies at the end of weeks 7, 8 and 9. […]

OPCs = test: Maturation of OPCs to mature oligodendrocytes, MBP staining after 14 days culture with AA; assay type: cell-based, rat; conditions: AA 1 μM
Protocol: FIG. 6 provides images showing the increased differentiation of OPCs to mature oligodendrocytes following culture with AA (Ana). OPCs were isolated from rat pups and were cultured with AA where 1 μM of AA was added to the culture every other day for 14 days. At the end of the experiment, the cells were stained and the amount of MBP was assessed using ImagJ software.
The expression of MBP, a marker for myelin maturation in OPCs, was investigated in the presence and absence of AA (1 μM) following culture with AA for 14 days.

IL-33 expression in OPCs = test: q-PCR on the induction of IL-33 in OPCs cultured with AA; assay type: cell-based, rat; conditions: 3 h, relative to GAPDH, vehicle = 1.00
Protocol: The effect of AA on the expression of myelin genes, MBP, and IL-33 was examined. […] Natarajan et al., PLOS One, 11(3):e0152163 (2016); Sriram et al., Neurology, Abstract presented at the American Academy of Neurology, 2016 (2016). The studies were done in OPCs obtained from rat pups. OPCs were treated with AA (2.5 μM) for 3 hours and message levels were quantified using qPCR analysis. OPCs treated with AA induced the major myelin genes Mbp, Mog and Plp.
The expression of IL-33 induced by AA in OPCs was also examined. […] (FIG. 3). The data is expressed as fold change compared to the control protein GAPDH.

CCCCCCCCCCCCCCCc1cccc(O)c1C(=O)O [AA, anacardic acid]
increase in the expression of MBP (image analysis, FIG. 4) (MBP in OPCs; OPCs cultured with AA, concentration not given): 2.4 fold | level of MBP (Western blot) (MBP in OPCs; OPCs, AA 1, 2.5, 5, 7.5 and 10 μM, 10 days): increased the level of MBP in a dose dependent manner | number of oligodendrocytes vs vehicle treated mice ([1]; AA 12.5 mg/kg/day): no difference | increase in LFB staining of corpus callosum vs control mice ([1]; end of week 9, three weeks of AA 12.5 mg/kg sc daily, P<0.02): 10% | expression of myelin vs control mice ([1]; end of weeks 7 and 8, one or two weeks of AA 12.5 mg/kg sc daily): no differences | increase in MBP staining (anti MBP antibodies) vs control mice ([1]; week 9, AA 12.5 mg/kg/day weeks 7-9, P=0.02): 17% | increase in the expression of MBP vs normal growth medium (OPCs): 2.1 fold | Fold change of IL-33 expression (IL-33 expression in OPCs; AA 2.5 μM): 8.54 fold | Fold change of IL-33 expression (IL-33 expression in OPCs; AA 5 μM): 4.77 fold
